The source of these data is ChEMBL document CHEMBL5465560, “Selectivity Literature for EUbOPEN Chemogenomic Library” (2024).

Numbering of substitutions follows the chain as printed.

The subject of test [1] is eIF-2-alpha kinase GCN2 (Homo sapiens), Q9P2K8 [S808G]. The test is described as follows: Selectivity interaction (KinomeScan (DiscoverX)) EUB0000595a EIF2AK4. The following applies: at 10 µM.
In test [2] the target is T1, Muscle, skeletal receptor tyrosine-protein kinase (Homo sapiens) (UniProt O15146).
T1 sequence (whole entry): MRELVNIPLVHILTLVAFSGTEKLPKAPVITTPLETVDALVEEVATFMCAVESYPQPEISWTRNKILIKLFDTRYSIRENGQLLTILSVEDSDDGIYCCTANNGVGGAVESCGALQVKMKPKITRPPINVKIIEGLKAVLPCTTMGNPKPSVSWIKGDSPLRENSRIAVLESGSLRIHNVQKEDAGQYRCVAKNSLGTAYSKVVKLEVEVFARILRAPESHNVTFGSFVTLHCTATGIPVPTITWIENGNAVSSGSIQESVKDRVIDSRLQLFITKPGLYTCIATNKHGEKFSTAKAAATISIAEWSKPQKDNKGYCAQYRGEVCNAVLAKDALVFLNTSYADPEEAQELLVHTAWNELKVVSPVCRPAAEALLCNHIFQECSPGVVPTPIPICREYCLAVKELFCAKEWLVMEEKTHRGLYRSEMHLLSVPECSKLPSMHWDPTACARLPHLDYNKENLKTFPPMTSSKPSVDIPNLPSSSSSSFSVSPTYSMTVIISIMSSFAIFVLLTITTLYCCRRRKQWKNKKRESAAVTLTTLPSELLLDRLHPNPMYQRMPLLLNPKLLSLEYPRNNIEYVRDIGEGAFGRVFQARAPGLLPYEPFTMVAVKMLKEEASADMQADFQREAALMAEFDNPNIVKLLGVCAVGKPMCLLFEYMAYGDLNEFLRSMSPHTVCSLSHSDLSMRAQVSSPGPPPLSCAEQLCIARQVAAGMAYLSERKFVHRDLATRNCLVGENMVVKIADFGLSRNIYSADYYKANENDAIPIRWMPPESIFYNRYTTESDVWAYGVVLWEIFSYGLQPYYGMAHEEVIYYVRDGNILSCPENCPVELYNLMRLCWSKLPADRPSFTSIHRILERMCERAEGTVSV
Nature of the test: Selectivity interaction (KinomeScan (DiscoverX)) EUB0000595a MUSK. The following applies: at 10 µM.

Test [3] deals with Receptor-type tyrosine-protein kinase FLT3 (Homo sapiens) (UniProt P36888). The test is described as follows: (§1) Selectivity interaction (KinomeScan (DiscoverX)) EUB0000607a FLT3. The note with it: at 10 µM.
Test [4] relates to T2, Receptor-type tyrosine-protein kinase FLT3 (Homo sapiens), P36888 [D835H].
T2 sequence (whole entry): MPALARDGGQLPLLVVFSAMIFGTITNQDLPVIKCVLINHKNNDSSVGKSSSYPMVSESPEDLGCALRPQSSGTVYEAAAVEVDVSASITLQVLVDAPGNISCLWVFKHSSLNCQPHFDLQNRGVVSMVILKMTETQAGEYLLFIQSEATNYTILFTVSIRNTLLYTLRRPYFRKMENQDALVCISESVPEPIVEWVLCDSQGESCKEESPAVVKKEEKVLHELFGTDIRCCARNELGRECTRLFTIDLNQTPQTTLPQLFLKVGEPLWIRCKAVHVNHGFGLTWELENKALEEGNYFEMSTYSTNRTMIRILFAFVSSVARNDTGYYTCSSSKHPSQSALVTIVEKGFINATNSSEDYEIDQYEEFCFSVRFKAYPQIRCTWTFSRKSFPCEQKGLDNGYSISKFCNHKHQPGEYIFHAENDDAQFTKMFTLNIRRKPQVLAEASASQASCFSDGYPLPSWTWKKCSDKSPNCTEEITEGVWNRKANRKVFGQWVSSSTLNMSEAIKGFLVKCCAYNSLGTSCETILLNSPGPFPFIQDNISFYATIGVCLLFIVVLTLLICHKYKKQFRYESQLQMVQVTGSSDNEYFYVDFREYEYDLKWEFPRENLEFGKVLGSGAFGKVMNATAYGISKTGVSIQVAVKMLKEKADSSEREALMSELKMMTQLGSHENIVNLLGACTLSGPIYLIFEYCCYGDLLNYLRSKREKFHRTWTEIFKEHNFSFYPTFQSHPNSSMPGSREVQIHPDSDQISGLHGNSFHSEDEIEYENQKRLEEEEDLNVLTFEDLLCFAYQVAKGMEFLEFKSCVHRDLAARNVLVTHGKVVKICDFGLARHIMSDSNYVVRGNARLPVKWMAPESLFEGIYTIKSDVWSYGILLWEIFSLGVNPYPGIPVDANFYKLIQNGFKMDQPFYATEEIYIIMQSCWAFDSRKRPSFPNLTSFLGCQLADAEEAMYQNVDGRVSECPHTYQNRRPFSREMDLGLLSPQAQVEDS
The test is described as §1. The note with it: at 10 µM.

In test [5] the test system is T3, Receptor-type tyrosine-protein kinase FLT3 (Homo sapiens), P36888 [R834Q].
T3 sequence (whole entry): T2 sequence (whole entry) with R834Q, H835D
Described as §1. The following applies: at 10 µM.

Test [6] has as its target Serine/threonine-protein kinase PLK1 (Homo sapiens, UniProt P53350). Nature of the test: Selectivity interaction (Kinase panel (Invitrogen)) EUB0000639a PLK1. The following applies: at 200 nM.

Serine/threonine-protein kinase PLK1, sequence (P53350 whole entry): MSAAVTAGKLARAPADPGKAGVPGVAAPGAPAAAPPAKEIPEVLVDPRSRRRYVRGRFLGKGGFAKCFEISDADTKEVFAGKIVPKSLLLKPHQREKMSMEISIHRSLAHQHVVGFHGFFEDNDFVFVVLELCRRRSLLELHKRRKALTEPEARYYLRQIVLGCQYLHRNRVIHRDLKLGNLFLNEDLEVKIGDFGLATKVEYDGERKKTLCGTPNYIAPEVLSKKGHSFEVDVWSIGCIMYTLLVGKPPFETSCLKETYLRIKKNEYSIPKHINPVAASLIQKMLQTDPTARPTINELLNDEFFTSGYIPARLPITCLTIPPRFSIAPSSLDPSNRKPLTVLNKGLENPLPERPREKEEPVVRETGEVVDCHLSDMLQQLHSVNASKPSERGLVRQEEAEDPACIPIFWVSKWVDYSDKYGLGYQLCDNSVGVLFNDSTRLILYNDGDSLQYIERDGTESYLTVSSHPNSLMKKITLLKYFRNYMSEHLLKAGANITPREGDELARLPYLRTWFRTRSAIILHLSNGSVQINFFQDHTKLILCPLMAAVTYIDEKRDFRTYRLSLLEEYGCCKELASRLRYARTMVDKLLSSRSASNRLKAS
eIF-2-alpha kinase GCN2 (Homo sapiens), Q9P2K8 [S808G], sequence (Q9P2K8 whole entry S808G): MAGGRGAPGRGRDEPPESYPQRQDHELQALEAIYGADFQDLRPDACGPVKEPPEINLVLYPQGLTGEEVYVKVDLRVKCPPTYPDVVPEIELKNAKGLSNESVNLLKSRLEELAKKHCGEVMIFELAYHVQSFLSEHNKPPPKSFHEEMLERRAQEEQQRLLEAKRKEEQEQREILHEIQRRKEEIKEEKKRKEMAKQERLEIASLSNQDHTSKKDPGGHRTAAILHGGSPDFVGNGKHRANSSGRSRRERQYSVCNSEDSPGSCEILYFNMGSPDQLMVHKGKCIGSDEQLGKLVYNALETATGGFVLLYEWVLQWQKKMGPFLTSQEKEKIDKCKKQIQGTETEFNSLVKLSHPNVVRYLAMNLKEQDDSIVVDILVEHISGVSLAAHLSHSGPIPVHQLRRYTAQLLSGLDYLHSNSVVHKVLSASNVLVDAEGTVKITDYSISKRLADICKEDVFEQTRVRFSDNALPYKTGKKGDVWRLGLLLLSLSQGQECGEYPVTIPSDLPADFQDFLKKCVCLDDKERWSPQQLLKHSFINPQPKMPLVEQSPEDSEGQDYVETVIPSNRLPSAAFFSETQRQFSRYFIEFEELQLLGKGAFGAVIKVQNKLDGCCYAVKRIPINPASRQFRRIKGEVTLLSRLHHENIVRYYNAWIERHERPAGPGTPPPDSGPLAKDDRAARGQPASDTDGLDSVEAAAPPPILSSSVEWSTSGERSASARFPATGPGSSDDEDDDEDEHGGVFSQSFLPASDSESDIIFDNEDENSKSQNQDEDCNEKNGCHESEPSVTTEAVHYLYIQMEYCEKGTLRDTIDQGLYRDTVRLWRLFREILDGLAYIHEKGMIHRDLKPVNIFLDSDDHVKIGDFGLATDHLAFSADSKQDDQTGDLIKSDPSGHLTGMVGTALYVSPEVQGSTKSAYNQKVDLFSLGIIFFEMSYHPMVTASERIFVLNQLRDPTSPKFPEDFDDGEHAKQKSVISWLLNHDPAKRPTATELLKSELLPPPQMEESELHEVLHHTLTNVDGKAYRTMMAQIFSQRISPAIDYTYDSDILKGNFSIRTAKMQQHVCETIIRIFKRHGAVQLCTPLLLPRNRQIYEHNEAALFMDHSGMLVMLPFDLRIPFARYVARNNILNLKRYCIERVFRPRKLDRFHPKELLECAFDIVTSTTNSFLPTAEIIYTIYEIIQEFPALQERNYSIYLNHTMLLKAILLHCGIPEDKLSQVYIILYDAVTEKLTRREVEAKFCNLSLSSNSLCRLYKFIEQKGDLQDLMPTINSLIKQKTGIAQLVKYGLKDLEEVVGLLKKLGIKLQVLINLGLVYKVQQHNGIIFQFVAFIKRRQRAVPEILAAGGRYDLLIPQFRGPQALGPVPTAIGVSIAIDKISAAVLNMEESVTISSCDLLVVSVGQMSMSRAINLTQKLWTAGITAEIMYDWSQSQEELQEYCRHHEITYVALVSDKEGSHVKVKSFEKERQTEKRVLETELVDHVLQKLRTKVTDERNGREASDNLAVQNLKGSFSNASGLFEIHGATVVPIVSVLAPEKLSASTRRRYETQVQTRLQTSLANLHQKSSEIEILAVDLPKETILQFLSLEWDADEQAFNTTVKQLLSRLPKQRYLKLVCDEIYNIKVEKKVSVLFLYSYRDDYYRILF

With `COCC(=O)NC/C=C/c1ccc2ncnc(Nc3ccc(Oc4ccc(C)nc4)c(C)c3)c2c1` [CP-724714], the % of control in test [1] came out at 81%; in test [2], 100%.
Consider `CNC(=O)Nc1ccc(-c2nc(N3CC4CCC(C3)O4)c3cnn(C4CCC5(CC4)OCCO5)c3n2)cc1`, for which the figures for the % of control in test [3], in test [4] and in test [5] were 75%, 82% and 79%, respectively.
Regarding `CC[C@@H]1[C@H](F)C(=O)N[C@@H]1COc1nccc2cc(C(N)=O)c(OC)cc12` [ZIMLOVISERTIB], in test [6], the % of inhibition amounted to 4.41%.
